Results from patent EP1101492A1, “NOVEL REMEDIES FOR ALLERGIC DISEASES” (FUJI YAKUHIN KOGYO KABUSHIKI KAISHA, priority 1998, dated 2000).

How the values were obtained:
Body weight gain in mice = conditions: test compounds 60 mg/kg s.c., prednisolone 10 mg/kg i.p., once a day for 6 days (Days 0-5), average ± standard deviation; for Body Weight Gain, Observation Day 5: non-administered 0.50± 0.23; for Body Weight Gain, Observation Day 7: non-administered 0.80± 0.48; for Body Weight Gain, Observation Day 10: non-administered 1.07± 0.58
Procedure: Accordingly, for assessing the side-effect each of the following test compounds an action on body weight gains was examined.
Next the mice were measured for their body weight. Each body weight gain was calculated on Days 5, 7 and 10 post-administration based on the body weight just prior to administration.

IgE = test: Serum IgE level in sensitized and DNFB-elicited mice (ELISA); type: in vivo, Balb/c mice; conditions: 100 µg/ear in ethanol painted twice a day, 1 hour pre-elicitation, 0.25, 4, 5 and 6 days post-elicitation; serum 7 days post-elicitation; average ± standard deviation; untreated 34.55 ± 8.89, healthy 11.79 ± 2.35
From the text: Ethanol alone was also painted onto both sides of a mouse left auricle. […] Blood was also drawn from unsensitized healthy mice and untreated mice and treated to give serum samples. Seven days post-elicitation, blood samples were drawn by cardiac puncture using a syringe treated with heparin, and then centrifuged to give serum samples.
A dilution of polyclonal goat anti-mouse IgE antibody (Bethyl Laboratories, Inc.; 500-fold dilution) in 0.1 M sodium carbonate-sodium bicarbonate buffer (pH 9.6) was added to each well of a 96-well microtest plate (MaxiSorp, Nunc, Inc.) at a rate of 100 µL/well and the resultant microtest plates were allowed to stand at about 4°C overnight in a refrigerator. Each well was rinsed 3 times with phosphate buffer (pH 7.4) containing 0.05% Tween 20. Next, 0.1 M sodium carbonate-sodium bicarbonate buffer (pH 9.6) containing 1 % bovine serum albumin was added to each well at a rate of 100 µL/well. The resultant microtest plates were allowed to stand at room temperature for 1 hour and washed 3 times. Thereafter, 2-fold serial dilutions of mouse serum samples were poured into each well of microtest plates at 100 µL/well, which was subjected to an antigen-antibody reaction at 4°C for 2 hours. […] The resultant enzymatic reaction products were measured at 405 nm.

[1] = system: mouse experimental atopic dermatitis models; test: Auricle edema in experimental atopic dermatitis model (anti-DNP IgE sensitization, DNFB elicitation); type: in vivo, Balb/c mice; conditions: for % Inhibition IPR: auricle edema 1 hour post-elicitation; for % Inhibition IPR / % Inhibition LPR / % Inhibition vLPR: test compounds 60 mg/kg s.c., prednisolone 10 mg/kg i.p.; for % Inhibition IPR / % Inhibition LPR: once a day, 24 & 2 hours prior to DNFB-elicitation, vs untreated group; for % Inhibition LPR: auricle edema Day 1 post-elicitation; for % Inhibition vLPR: auricle edema Day 7 post-elicitation
Procedure: Intravenous injection of an anti-2,4-dinitrophenol (DNP) antibody (anti-DNP Ab, monoclonal IgE Ab; its antibody titer was 1 : 512 to 1 : 1024 by a rat heterologous passive cutaneous anaphylaxis reaction using a Wister rat) into a tail vein of female Balb/c mice (7-week old, body weight: 17 to 20 g, purchased from JAPAN SLC, Inc.) at a dose of […] per animal raised passive sensitization. Twenty four hours post-sensitization, 0.1% 2,4-dinitrofluorobenzene (DNFB; Nacalai Tesque, Inc.) in ethanol was painted onto both sides of a pair of mouse auricles at a dose of 10µL per each side for elicitation.
Fresh unsensitized mice were painted with 0.1% DNFB in ethanol onto their ear in the same manner as aforementioned and served as a control group. Not only immediately prior to elicitation but also 1 hour, 5 hours, daily between Days 1 and 14, and on Day 16 post-elicitation, ear thickness was measured using a dial thickness gauge (Peacock Co.). Each degree of auricle edemas was calculated: Auricular Edema (µm)=(Ear Thickness Post-Elicitation, µm) - (Ear Thickness immediately prior to Elicitation, µm) [formula]
Balb/c mice were passively sensitized with anti-DNP IgE Ab in the same manner as in Example 1. Twenty four hours later, 0.1% DNFB in ethanol was painted onto both sides of a pair of mouse auricles at a dose of 10 µL per each side for elicitation.
Immediately prior to elicitation, 1 hour and on Day 1 post-elicitation, auricle thickness was measured in the same manner as in Example 1. Each therapeutic efficacy is recorded as a percent inhibition wherein the "auricle edema (untreated group)" is used as a control. Auricle Edema Inhibition (%) = [ 1 -(Auricle Edema (Treated Group))/(Auricle Edema (Untreated Group))] × 100 (%) [formula]
Immediately prior to elicitation, and on Day 7 post-elicitation, auricle thickness was similarly measured. Each therapeutic efficacy is recorded as a percent inhibition wherein the auricle edema in the untreated group is used as a control.
Immediately prior to elicitation, and on Day 7 post-elicitation, auricle thickness was similarly measured. Each therapeutic efficacy is recorded as a percent inhibition wherein the auricle edema (untreated group) is used as a control.
Immediately prior to elicitation, at 1 and 4 hours and on Days 1, 3 and 7 post-elicitation, auricle thickness was similarly measured. From each auricle edema (µm) based on the auricle thickness immediately prior to elicitation, especially a prophylactically therapeutic efficacy of the test compound was evaluated.
Immediately prior to elicitation, at 0.5, 1 and 4 hours and on Days 1, 3 and 7 post-elicitation, auricle thickness was similarly measured. Each amount of auricle edemas was calculated (average± standard deviation).

[2] = Body weight gain in sensitized mice; type: in vivo; conditions: test compound 50 µg/ear/dose, prednisolone 5 µg/ear/dose, in ethanol painted twice a day, Days 1, 4 and 7, vs solvent control (ethanol)
Procedure: Experimental atopic dermatitis model mice sensitized in the same manner as in Example 1 were examined for influence on body weight gains.
Each mouse was measured for its body weight not only immediately before the start in painting but also on Days 1, 4 and 7 after the start in painting. Each gain in body weight was calculated and considered to indicate an effect on body weight changes affected by said treatments.

[3] = system: guinea pig experimental bronchial asthma models; test: Experimental bronchial asthma model (ovalbumin inhalation): airway resistance and asthmatic death; conditions: prednisolone 10 mg/kg orally;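 note: female Std:Hartley guinea pigs sensitized by inhaling nebulized ovalbumin once daily for 8 consecutive days, 8 to 11 animals per group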
[4] = daily from 3 to 6 days after DNFB-elicitation
[5] = daily from 1 day prior to through 5 days after DNFB-elicitation
[6] = asthmatic death due to cyanosis within several minutes after elicitation, Compound No. 130 15 mg/kg s.c., 24 and 2 hours prior to elicitation
[7] = test compounds 15 mg/kg s.c. (Compound No. 114: 30 mg/kg), 24 and 2 hours prior to elicitation, vs solvent control

| Compound | Body Weight Gain, Observation Day 5 (Body weight gain in mice) | Body Weight Gain, Observation Day 7 (Body weight gain in mice) | Body Weight Gain, Observation Day 10 (Body weight gain in mice) | Serum IgE Level (IgE) [ng/mL] | inhibitory efficacy on IgE-mediated auricle edema (FIG. 8) ([1]; 150 mg/kg orally once a day, compared to solvent control group, IPR 1 hour, LPR 1 day, vLPR 7 days) | % Inhibition IPR [1] [%] | % Inhibition LPR [1] [%] | % Inhibition vLPR [1, 4] [%] | % Inhibition vLPR [1, 5] [%] | gain in body weight (FIG. 10) [2] | % Mortality [3, 6] [%] | (Dead Animals)/(Tested Animals) [3, 6] | % Survival ([3]; asthmatic death within several minutes after elicitation, test compounds 15 mg/kg s.c. (Compound No. 114: 30 mg/kg), water for injection 54.5, 0.5% methyl cellulose 66.7) [%] | % Amelioration in Airway Resistance, 1 Hour after Elicitation [3, 7] [%] | % Amelioration in Airway Resistance, 6 Hours after Elicitation [3, 7] [%] | % Amelioration in Airway Resistance, Immediately after Elicitation [3, 7] [%] |
| --- | --- | --- | --- | --- | --- | --- | --- | --- | --- | --- | --- | --- | --- | --- | --- | --- |
| CC(=N)NCCCC[C@H](NC(=O)[C@H](CC(C)C)C(CCCc1ccccc1)C(=O)NO)C(=O)NCCN(C)C.CC(=O)O.CC(=O)O (mixture of isomers) [Compound No. 44, N^a-[4-(Hydroxyamino)-2(R)-isobutyl-3(RS)-(3-phenylpropyl)succinyl]-N^e-acetimidoyl-L-lysine N-(2-N',N'-dimethylaminoethyl)amide · 2 acetate] | 0.80± 0.30 | 1.08± 0.57 | 1.23± 0.56 | 26.70 ± 10.88 | not only an inhibitory activity on the development of edemas in both IPR and LPR but also a remarkably strong inhibitory activity in vLPR | 43.9 | 43.6 | 65.6 | 22.0 | – | – | – | – | – | – | – |
| C[C@]12C=CC(=O)C=C1CC[C@@H]1[C@@H]2[C@@H](O)C[C@@]2(C)[C@H]1CC[C@]2(O)C(=O)CO [Prednisolone, reference compound] | 0.00± 0.26 | 0.03± 0.57 | 0.97± 0.47 | – | – | 36.8 | 29.9 | 24.8 | 24.8 | below that in the solvent control group | 22.2 | 2/9 | 75.0 | 23.6 | 14.8 | 11.5 |
